For 3 compounds, ED50 results are on record in patent EP0807626A1, “N-HYDROXYUREA DERIVATIVES” (Nikken Chemicals Company, Limited, priority 1995, dated 1996).

The assay relates to antigen-induced bronchoconstriction. In words: Antigen-induced bronchoconstriction model of guinea pig (Konzett-Rossler method). Particulars: Cavia porcellus, po, 1 h; guinea pigs sensitized by ovalbumin, orally administered, one hour after administration; read-out: Suppression of Respiratory Constriction (ED50: mg/kg). Type of assay: in vivo. How it is done: Guinea pigs sensitized by ovalbumin were used and orally administered with the test compound suspended in 5% gum arabic. The activity for suppressing antigen-induced bronchoconstriction after one hour after administration was measured by the Konzett-Rossler method.
Each of the sensitized guinea pigs was anesthesized by 35 mg/kg pentobarbital, a airway cannula was inserted into the trachea and connected to an artificial respirator and transducer, a vein cannula was inserted into the jugular vein, and treatment was performed by 5 mg/kg soxamethonium and 5 mg/kg mepyramine. Next, the guinea pig was inhaled a nebulized ovalbumin to cause bronchoconstriction and the activity in suppressing bronchoconstriction was found from the ratio of the amount of overflow volume to the detector to the amount of air blown volume from the artificial respirator.
As the test compound, the Compound 7 was used. […]
As for `NC(=O)N(O)CCCC(c1ccccc1)c1cccnc1` (stereo not drawn) [Compound 7, N-hydroxy-N-[4-phenyl-4-(3-pyridyl)butyl]urea], the ED50 is 70 mg/kg. To `CC(c1cc2ccccc2s1)N(O)C(N)=O` (stereo not drawn) [Compound A-64077] belongs 300 mg/kg. As for `O=C(O)/C=C/c1ccc(Cn2ccnc2)cc1` [OKY-046], the figure is 260 mg/kg.
